{"source": "patent USRE39591E1", "about": "“6-O-substituted ketolides having antibacterial activity” (Abbott Laboratories, priority 1996, dated 2007)", "tested_on": "up to 32 different microorganisms", "experiment": "in vitro antibacterial activity (MIC), agar dilution on Brain Heart Infusion (BHI) agar with Steers replicator", "format": "cell-based", "settings": "unit assumed", "outline": "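MIC read visually: lowest drug level with no growth, slight haze or sparsely isolated colonies on the inoculum spot relative to drug-free control. Serial aqueous compound dilutions in BHI agar, 1:100 inoculum (1:10 slow strains), 20 to 24 hours at 35°-37° C.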", "key": {"[1]": {"settings": "Candida albicans CCH 442 (code TT)"}, "[2]": {"settings": "Enterococcus faecism ATCC 8043 (code II)"}, "[3]": {"settings": "Escherichia coli DC-2 (code SS)"}, "[4]": {"settings": "Escherichia coli JUHL (code QQ)"}, "[5]": {"settings": "Haemophilis influenzae DILL AMP R (code WW)"}, "[6]": {"settings": "Micrococcus luteus ATCC 4698 (code PP)"}, "[7]": {"settings": "Micrococcus luteus ATCC 9341 (code OO)"}, "[8]": {"settings": "Mycobacterium smegmatis ATCC 114 (code UU)"}, "[9]": {"settings": "Nocardia Asteroides ATCC9970 (code VV)"}, "[10]": {"settings": "Staphylococcus aureus 1775 (code GG)"}, "[11]": {"settings": "Staphylococcus aureus A5177 (code BB)"}, "[12]": {"settings": "Staphylococcus aureus A-5278 (code CC)"}, "[13]": {"settings": "Staphylococcus aureus ATCC 6538P (code AA)"}, "[14]": {"settings": "Staphylococcus aureus CMX 553 (code FF)"}, "[15]": {"settings": "Staphylococcus aureus CMX 642A (code DD)"}, "[16]": {"settings": "Staphylococcus aureus NCTC10649M (code EE)"}, "[17]": {"settings": "Staphylococcus epidermidis 3519 (code HH)"}, "[18]": {"settings": "Streptococcus Pneumonia 5649 (code ZZA)"}, "[19]": {"settings": "Streptococcus Pneumonia 5979 (code ZZ)"}, "[20]": {"settings": "Streptococcus Pneumonia ATCC6303 (code XX)"}, "[21]": {"settings": "Streptococcus Pneumonia GYR 1171 (code YY)"}, "[22]": {"settings": "Streptococcus agalactiae CMX 508 (code KK)"}, "[23]": {"settings": "Streptococcus bovis A-5169 (code JJ)"}, "[24]": {"settings": "Streptococcus pyogenes 930 (code MM)"}, "[25]": {"settings": "Streptococcus pyogenes EES61 (code LL)"}, "[26]": {"settings": "Streptococcus pyogenes PIU 2548 (code NN)"}}, "data": [{"compound": "CC[C@H]1OC(=O)[C@H](C)C(=O)[C@H](C)[C@@H](O[C@@H]2O[C@H](C)C[C@H](N(C)C)[C@H]2O)[C@@](C)(OCCNCc2ccccc2)C[C@@H](C)C(=O)[C@H](C)[C@@H](O)[C@]1(C)O", "note": "[Example 9, Compound of Formula (VIII): X is O, R is —CH2CH2NHCH2-Phenyl]", "values": [{"measurement": "MIC", "setting": "[1]", "result": "> 100", "unit": "µg/mL"}, {"measurement": "MIC", "setting": "[2]", "result": 0.78, "unit": "µg/mL"}, {"measurement": "MIC", "setting": "[3]", "result": 25, "unit": "µg/mL"}, {"measurement": "MIC", "setting": "[4]", "result": 25, "unit": "µg/mL"}, {"measurement": "MIC", "setting": "Escherichia coli SS (code RR)", "result": 0.39, "unit": "µg/mL"}, {"measurement": "MIC", "setting": "[5]", "result": 16, "unit": "µg/mL"}, {"measurement": "MIC", "setting": "[6]", "result": 0.78, "unit": "µg/mL"}, {"measurement": "MIC", "setting": "[7]", "result": 0.2, "unit": "µg/mL"}, {"measurement": "MIC", "setting": "[8]", "result": 6.2, "unit": "µg/mL"}, {"measurement": "MIC", "setting": "[9]", "result": 0.2, "unit": "µg/mL"}, {"measurement": "MIC", "setting": "[10]", "result": "> 100", "unit": "µg/mL"}, {"measurement": "MIC", "setting": "[11]", "result": 1.56, "unit": "µg/mL"}, {"measurement": "MIC", "setting": "[12]", "result": "> 100", "unit": "µg/mL"}, {"measurement": "MIC", "setting": "[13]", "result": 3.1, "unit": "µg/mL"}, {"measurement": "MIC", "setting": "[14]", "result": 3.1, "unit": "µg/mL"}, {"measurement": "MIC", "setting": "[15]", "result": 6.2, "unit": "µg/mL"}, {"measurement": "MIC", "setting": "[16]", "result": 0.78, "unit": "µg/mL"}, {"measurement": "MIC", "setting": "[17]", "result": 3.1, "unit": "µg/mL"}, {"measurement": "MIC", "setting": "[18]", "result": 4, "unit": "µg/mL"}, {"measurement": "MIC", "setting": "[19]", "result": "> 64", "unit": "µg/mL"}, {"measurement": "MIC", "setting": "[20]", "result": 0.25, "unit": "µg/mL"}, {"measurement": "MIC", "setting": "[21]", "result": 0.25, "unit": "µg/mL"}, {"measurement": "MIC", "setting": "[22]", "result": 0.39, "unit": "µg/mL"}, {"measurement": "MIC", "setting": "[23]", "result": 0.05, "unit": "µg/mL"}, {"measurement": "MIC", "setting": "[24]", "result": "> 100", "unit": "µg/mL"}, {"measurement": "MIC", "setting": "[25]", "result": 0.39, "unit": "µg/mL"}, {"measurement": "MIC", "setting": "[26]", "result": 0.78, "unit": "µg/mL"}]}, {"compound": "CC[C@H]1OC(=O)[C@H](C)C(=O)[C@H](C)[C@@H](O[C@@H]2O[C@H](C)C[C@H](N(C)C)[C@H]2O)[C@@](C)(OCCCc2cnc3ccccc3c2)C[C@@H](C)C2=NCCN3C(=O)O[C@@]1(C)[C@H]3[C@H]2C", "note": "[Example 171, Compound of Formula (VII): A, B, D, and E are H, R is —CH2CH2CH2-(3-quinolyl)]", "values": [{"measurement": "MIC", "setting": "[1]", "result": "> 100", "unit": "µg/mL"}, {"measurement": "MIC", "setting": "[2]", "result": 0.05, "unit": "µg/mL"}, {"measurement": "MIC", "setting": "[3]", "result": 25, "unit": "µg/mL"}, {"measurement": "MIC", "setting": "[4]", "result": 25, "unit": "µg/mL"}, {"measurement": "MIC", "setting": "Escherichia coli SS (code RR)", "result": 0.39, "unit": "µg/mL"}, {"measurement": "MIC", "setting": "[5]", "result": 2, "unit": "µg/mL"}, {"measurement": "MIC", "setting": "[6]", "result": 0.39, "unit": "µg/mL"}, {"measurement": "MIC", "setting": "[7]", "result": 0.01, "unit": "µg/mL"}, {"measurement": "MIC", "setting": "[8]", "result": 0.78, "unit": "µg/mL"}, {"measurement": "MIC", "setting": "[9]", "result": 0.05, "unit": "µg/mL"}, {"measurement": "MIC", "setting": "[10]", "result": "> 100", "unit": "µg/mL"}, {"measurement": "MIC", "setting": "[11]", "result": 0.05, "unit": "µg/mL"}, {"measurement": "MIC", "setting": "[12]", "result": "> 100", "unit": "µg/mL"}, {"measurement": "MIC", "setting": "[13]", "result": 0.1, "unit": "µg/mL"}, {"measurement": "MIC", "setting": "[14]", "result": 0.05, "unit": "µg/mL"}, {"measurement": "MIC", "setting": "[15]", "result": 0.05, "unit": "µg/mL"}, {"measurement": "MIC", "setting": "[16]", "result": 0.02, "unit": "µg/mL"}, {"measurement": "MIC", "setting": "[17]", "result": 0.1, "unit": "µg/mL"}, {"measurement": "MIC", "setting": "[18]", "result": 1, "unit": "µg/mL"}, {"measurement": "MIC", "setting": "[19]", "result": "> 16", "unit": "µg/mL"}, {"measurement": "MIC", "setting": "[20]", "result": 0.03, "unit": "µg/mL"}, {"measurement": "MIC", "setting": "[21]", "result": 0.03, "unit": "µg/mL"}, {"measurement": "MIC", "setting": "[22]", "result": 0.02, "unit": "µg/mL"}, {"measurement": "MIC", "setting": "[23]", "result": "≤ 0.005", "unit": "µg/mL"}, {"measurement": "MIC", "setting": "[24]", "result": 25, "unit": "µg/mL"}, {"measurement": "MIC", "setting": "[25]", "result": "≤ 0.005", "unit": "µg/mL"}, {"measurement": "MIC", "setting": "[26]", "result": 0.2, "unit": "µg/mL"}]}, {"compound": "CCC1OC(=O)C(C)C(=O)C(C)C(OC2OC(C)CC(N(C)C)C2O)C(C)(OCC=Cc2ccc3[nH]cnc3c2)CC(C)C(=O)C(C)C2NC(=O)OC12C", "note": "(stereo not shown) [Example 205, R is —CH2CH═CH-(5-benzimidazolyl)]", "values": [{"measurement": "MIC", "setting": "organism code XX", "result": 0.03, "unit": "µg/mL"}, {"measurement": "MIC", "setting": "organism code YY", "result": 0.06, "unit": "µg/mL"}, {"measurement": "MIC", "setting": "organism code ZZ", "result": "> 64", "unit": "µg/mL"}, {"measurement": "MIC", "setting": "organism code ZZA", "result": 4, "unit": "µg/mL"}]}, {"compound": "CCC1OC(=O)C(C)C(=O)C(C)C(OC2OC(C)CC(N(C)C)C2O)C(C)(OCC=Cc2cnc3ccc(O)cc3c2)CC(C)C(=O)C(C)C2NC(=O)OC12C", "note": "(stereo not shown) [Example 208, R is —CH2CH═CH-(6-hydroxy-3-quinolyl)]", "values": [{"measurement": "MIC", "setting": "organism code AA", "result": 0.1, "unit": "µg/mL"}, {"measurement": "MIC", "setting": "organism code BB", "result": 0.39, "unit": "µg/mL"}, {"measurement": "MIC", "setting": "organism code CC", "result": "> 100", "unit": "µg/mL"}, {"measurement": "MIC", "setting": "organism code DD", "result": 0.2, "unit": "µg/mL"}, {"measurement": "MIC", "setting": "organism code EE", "result": 0.2, "unit": "µg/mL"}, {"measurement": "MIC", "setting": "organism code FF", "result": 0.2, "unit": "µg/mL"}, {"measurement": "MIC", "setting": "organism code GG", "result": "> 100", "unit": "µg/mL"}, {"measurement": "MIC", "setting": "organism code HH", "result": 0.2, "unit": "µg/mL"}, {"measurement": "MIC", "setting": "organism code II", "result": 0.1, "unit": "µg/mL"}, {"measurement": "MIC", "setting": "organism code JJ", "result": 0.01, "unit": "µg/mL"}, {"measurement": "MIC", "setting": "organism code KK", "result": 0.01, "unit": "µg/mL"}, {"measurement": "MIC", "setting": "organism code LL", "result": 0.01, "unit": "µg/mL"}, {"measurement": "MIC", "setting": "organism code MM", "result": 0.78, "unit": "µg/mL"}, {"measurement": "MIC", "setting": "organism code NN", "result": 0.39, "unit": "µg/mL"}, {"measurement": "MIC", "setting": "organism code OO", "result": 0.01, "unit": "µg/mL"}, {"measurement": "MIC", "setting": "organism code PP", "result": 0.1, "unit": "µg/mL"}, {"measurement": "MIC", "setting": "organism code QQ", "result": 25, "unit": "µg/mL"}, {"measurement": "MIC", "setting": "organism code RR", "result": 0.39, "unit": "µg/mL"}, {"measurement": "MIC", "setting": "organism code SS", "result": 50, "unit": "µg/mL"}, {"measurement": "MIC", "setting": "organism code TT", "result": "> 100", "unit": "µg/mL"}, {"measurement": "MIC", "setting": "organism code UU", "result": 0.78, "unit": "µg/mL"}, {"measurement": "MIC", "setting": "organism code VV", "result": 0.2, "unit": "µg/mL"}, {"measurement": "MIC", "setting": "organism code WW", "result": 2, "unit": "µg/mL"}, {"measurement": "MIC", "setting": "organism code XX", "result": 0.03, "unit": "µg/mL"}, {"measurement": "MIC", "setting": "organism code YY", "result": 0.03, "unit": "µg/mL"}, {"measurement": "MIC", "setting": "organism code ZZ", "result": 4, "unit": "µg/mL"}, {"measurement": "MIC", "setting": "organism code ZZA", "result": 1, "unit": "µg/mL"}]}]}
